For 14 molecules, IC50 results are on record in US20250215029A1 (Recludix Pharma, Inc., priority 2022, published 2025).

Assay [1] concerns the target T1, Recombinant STAT6 protein (STAT6 (W123-T658)) (Homo sapiens, UniProt P42226).
T1 construct: Recombinant STAT6 protein (STAT6 (W123-T658))
T1 sequence (P42226 123-658): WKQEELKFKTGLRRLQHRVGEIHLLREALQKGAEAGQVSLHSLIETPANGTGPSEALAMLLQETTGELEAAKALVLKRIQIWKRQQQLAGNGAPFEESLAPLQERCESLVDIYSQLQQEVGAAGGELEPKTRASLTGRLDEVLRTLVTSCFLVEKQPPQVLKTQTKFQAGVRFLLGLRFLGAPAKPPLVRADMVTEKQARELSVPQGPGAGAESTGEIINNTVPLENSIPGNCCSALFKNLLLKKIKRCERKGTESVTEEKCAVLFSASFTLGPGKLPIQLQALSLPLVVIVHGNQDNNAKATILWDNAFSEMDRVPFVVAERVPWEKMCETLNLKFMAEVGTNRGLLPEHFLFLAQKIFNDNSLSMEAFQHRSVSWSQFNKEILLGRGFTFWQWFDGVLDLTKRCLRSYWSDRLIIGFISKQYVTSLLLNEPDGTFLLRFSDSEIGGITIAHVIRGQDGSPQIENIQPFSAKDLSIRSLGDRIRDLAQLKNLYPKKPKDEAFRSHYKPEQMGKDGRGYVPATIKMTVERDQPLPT
Nature of the assay: STAT6 Fluorescence Polarization (FP) Assay. The format is binding. Particulars: 45-minute incubation. The procedure:
STAT6 Fluorescence Polarization (FP) Assay
An FP assay was developed to determine IC50 values for test substances. Recombinant STAT6 protein (STAT6 (W123-T658)) at 250 nM was combined with a fluorescently labeled, phosphotyrosine peptide probe (5-FAM-Ap[…]-NH2) at 2 nM in FP buffer (10 mM HEPES pH 7.4, 50 mM NaCl, 1 mM EDTA, 0.05% Tween 20, 2 mM DTT). 50 μL of STAT6-probe mixture was added to serial diluted compounds in black, 96-well plates (Greiner BioOne 655076) to a final concentration of 1% DMSO. Reaction components were mixed, and FP was measured after 45-minute incubation at room temperature using a Tecan Spark multimode plate reader. FP signal (mP) was plotted against the log concentration of the test substances and IC50 values were calculated by nonlinear regression analysis using GraphPad Prism software. For STAT6 FP assay, A=≤300 nM; B=>300-3000 nM; C=>3-30 μM; and D=>30 μM.
For orientation: Fluorescence polarisation rises when a labelled molecule tumbles more slowly, as on binding a larger partner.

The target in assay [2] is T2, Recombinant STAT3 protein (STAT3 (G127-I722)) (Homo sapiens, UniProt P40763).
T2 construct: Recombinant STAT3 protein (STAT3 (G127-I722))
Nature of the assay: STAT3 Fluorescence Polarization (FP) Assay. The class given is binding. The settings on record: probe 5-FAM-GpYLPQTV-NH2 2 nM, 45-minute incubation. The procedure:
STAT3 Fluorescence Polarization (FP) Assay
An FP assay was developed to determine IC50 values for test substances. Recombinant STAT3 protein (STAT3 (G127-I722)) at 25 nM was combined with a fluorescently labeled, phosphotyrosine peptide probe (5-FAM-GpYLPQTV-NH2) at 2 nM in FP buffer (10 mM HEPES pH 7.4, 50 mM NaCl, 1 mM EDTA, 0.05% Tween 20.2 mM DTT). 50 μL of STAT3-probe mixture was added to serial diluted compounds in black, 96-well plates (Greiner BioOne 655076) to a final concentration of 1% DMSO. Reaction components were mixed, and FP was measured after 45-minute incubation at room temperature using a Tecan Spark multimode plate reader. FP signal (mP) was plotted against the log concentration of the test substances and IC50 values were calculated by nonlinear regression analysis using GraphPad Prism software. For STAT3 FP assay, A=≤100 nM; B=>100-1000 nM; C=>1-10 μM; and D=>10 μM.

[3] abbreviates: STAT6 (W123-T658) 250 nM, probe 5-FAM-Ap[…]-NH2 2 nM, read-out: STAT6 (FP assay IC50 class).
The mark [4] stands for this setting: STAT3 (G127-I722) 25 nM, read-out: STAT3 (FP assay IC50 class).
Where [5] appears, read: STAT6 250 nM, probe 5-FAM-Ap[…]-NH2 2 nM, read-out: STAT6 (FP assay IC50).
Setting [6] is: STAT3 25 nM, read-out: STAT3 (FP assay IC50).
[7] abbreviates: STAT6 (W123-T658) 250 nM, probe 5-FAM-ApYKPFQDLI-NH2 2 nM, read-out: STAT6 (FP assay IC50 class).

Read-outs that look alike come from different tables or passages of the source.

T2 sequence (P40763 127-722): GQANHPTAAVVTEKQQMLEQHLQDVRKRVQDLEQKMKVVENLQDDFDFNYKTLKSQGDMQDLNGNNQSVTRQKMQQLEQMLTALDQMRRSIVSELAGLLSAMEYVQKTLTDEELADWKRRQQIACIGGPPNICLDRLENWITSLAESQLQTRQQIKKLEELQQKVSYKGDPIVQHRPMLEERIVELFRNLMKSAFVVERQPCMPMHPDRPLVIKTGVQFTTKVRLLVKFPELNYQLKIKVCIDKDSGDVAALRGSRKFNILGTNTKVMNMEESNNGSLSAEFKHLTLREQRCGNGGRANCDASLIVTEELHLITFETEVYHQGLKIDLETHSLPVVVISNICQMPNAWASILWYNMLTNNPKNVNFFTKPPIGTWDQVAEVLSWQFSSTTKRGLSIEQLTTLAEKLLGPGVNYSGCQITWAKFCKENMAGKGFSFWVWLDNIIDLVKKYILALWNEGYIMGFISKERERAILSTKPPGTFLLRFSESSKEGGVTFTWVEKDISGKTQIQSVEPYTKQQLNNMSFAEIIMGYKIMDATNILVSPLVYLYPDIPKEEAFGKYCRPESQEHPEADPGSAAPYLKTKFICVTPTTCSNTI

As for `O=C(N[C@H]1CCC[C@H]2CC[C@@H](C(=O)N3CC(c4cnccc4N4CCC4)C3)N2C1=O)c1cc2cc(CP(=O)(O)O)ccc2s1` [Compound 765, ((2-(((3S,6S,9aS)-3-(3-(4-(azetidin-1-yl)pyridin-3-yl)azetidine-1-carbonyl)-5-oxooctahydro-1H-pyrrolo[1,2-a]azepin-6-yl)carbamoyl)benzo [b]thiophen-5-yl)methyl) phosphonic acid], the IC50 was 3 to 30 µM in assay [1] (setting [3]) and below 100 nM in assay [2] (setting [4]).
For `NC(=O)N1C[C@H](NC(=O)[C@@H]2CC[C@@H]3CCCC[C@H](NC(=O)c4cc5cc(C(F)P(=O)(O)O)ccc5s4)C(=O)N32)[C@@H](F)C1` (stereo partly drawn) [Compound 558, ((2-(((3S,6S,10aS)-3-(((3S,4S)-1-carbamoyl-4-fluoropyrrolidin-3-yl)carbamoyl)-5-oxodecahydropyrrolo[1,2-a]azocin-6-yl)carbamoyl)benzo[b]thiophen-5-yl)fluoromethyl)phosphonic acid], in that order: 0.3 to 3 µM and below 100 nM.
For `COCC1(c2ccccc2)CN(C(=O)[C@@H]2CC[C@@H]3CCC[C@H](NC(=O)c4cc5cc(C(F)(F)P(=O)(O)O)ccc5s4)C(=O)N32)C1` [Compound 777, (difluoro(2-(((3S,6S,9aS)-3-(3-(methoxymethyl)-3-phenylazetidine-1-carbonyl)-5-oxooctahydro-1H-pyrrolo[1,2-a]azepin-6-yl)carbamoyl)benzo [b]thiophen-5-yl)methyl) phosphonic acid], in that order: 0.3 to 3 µM and below 100 nM.
`CCCC(=O)NC1(c2ccccn2)CN(C(=O)[C@@H]2CC[C@@H]3CCCC[C@H](NC(=O)c4cc5cc(C(F)(F)P(=O)(O)O)ccc5s4)C(=O)N32)C1` [Compound 122, ((2-(((3S,6S,10aS)-3-(3-butyramido-3-(pyridin-2-yl)azetidine-1-carbonyl)-5-oxodecahydropyrrolo[1,2-a]azocin-6-yl)carbamoyl)benzo[b]thiophen-5-yl)difluoromethyl)phosphonic acid]: the IC50 was 3 to 30 µM in assay [1] (setting [5]) and below 100 nM in assay [2] (setting [6]).
Consider `CCc1ccncc1C1CN(C(=O)[C@@H]2CC[C@@H]3CCC[C@H](NC(=O)c4ccc5cc(CP(=O)(O)O)sc5c4)C(=O)N32)C1` [Compound 550, ((6-(((3S,6S,9aS)-3-(3-(4-ethylpyridin-3-yl)azetidine-1-carbonyl)-5-oxooctahydro-1H-pyrrolo[1,2-a]azepin-6-yl)carbamoyl)benzo[b]thiophen-2-yl)methyl)phosphonic acid], for which the IC50 in assay [1] (setting [3]) is 3 to 30 µM; in assay [2] (setting [4]), 100 to 1000 nM.
Regarding “(difluoro(2- (((3S,6S,10aS)-3- ((1R,5S,6S)-6-(5- methyl-1,3,4- oxadiazol-2-yl)-3- azabicyclo[3.1.0] hexane-3- carbonyl)-5- oxodecahydropyrrolo [1,2-a]azocin-6- yl)carbamoyl)benzo [b]thiophen-5- yl)methyl)phosphon ic acid [Compound 804]”, the IC50 is 0.3 to 3 µM in assay [1] (setting [7]) and 100 to 1000 nM in assay [2] (setting [4]).
On to `N#Cc1[nH]nc2ccc(NC(=O)[C@@H]3CC[C@@H]4CCCC[C@H](NC(=O)c5cc6cc(C(F)(F)P(=O)(O)O)ccc6s5)C(=O)N43)cc12` [Compound 52, ((2-(((3S,6S,10aS)-3-((3-cyano-2H-indazol-5-yl)carbamoyl)-5-oxodecahydropyrrolo [1,2-a]azocin-6-yl)carbamoyl)benzo[b]thiophen-5-yl)difluoromethyl) phosphonic acid], for which the IC50 lay within 0.3 to 3 µM in assay [1] (setting [5]) and 1000 to 10000 nM in assay [2] (setting [6]).
Turning to `O=C(N[C@H]1CCC[C@H]2CC[C@@H](C(=O)N[C@H]3CN(c4ncc[nH]4)C[C@@H]3F)N2C1=O)c1cc2cc([C@H](F)P(=O)(O)O)ccc2s1` [Compound 637, ((R)-fluoro(2-(((3S,6S,9aS)-3-(((3S,4S)-4-fluoro-1-(1H-imidazol-2-yl)pyrrolidin-3-yl)carbamoyl)-5-oxooctahydro-1H-pyrrolo[1,2-a]azepin-6-yl)carbamoyl)benzo [b]thiophen-5-yl)methyl) phosphonic acid], the IC50 is 0.3 to 3 µM in assay [1] (setting [3]) and below 100 nM in assay [2] (setting [4]).
In the same order, the values of `Cc1cc(=O)[nH]cc1C1CN(C(=O)[C@@H]2CC[C@@H]3CCC[C@H](NC(=O)c4cc5cc(CP(=O)(O)O)ccc5s4)C(=O)N32)C1` [Compound 646, ((2-(((3S,6S,9aS)-3-(3-(4-methyl-6-oxo-1,6-dihydropyridin-3-yl)azetidine-1-carbonyl)-5-oxooctahydro-1H-pyrrolo[1,2-a]azepin-6-yl)carbamoyl)benzo [b]thiophen-5-yl)methyl) phosphonic acid] are 3 to 30 µM and 1000 to 10000 nM.
For `O=C(N[C@H]1CCC[C@H]2CC[C@@H](C(=O)N3CC(c4ncccn4)C3)N2C1=O)c1cc2cc(C(F)(F)P(=O)(O)O)ccc2s1` [Compound 46, (difluoro(2-(((3S,6S,9aS)-5-oxo-3-(3-(pyrimidin-2-yl)azetidine-1-carbonyl)octahydro-1H-pyrrolo[1,2-a]azepin-6-yl)carbamoyl)benzo[b]thiophen-5-yl)methyl) phosphonic acid], the half-maximal inhibitory concentration (IC50) in assay [1] (setting [5]) was 3 to 30 µM; in assay [2] (setting [6]) it was below 100 nM.
For the molecule `N#C[C@H]1[C@H](c2ccccc2)CN(C(=O)[C@@H]2CC[C@@H]3C[C@@H](N4CCC4)CC[C@H](NC(=O)c4cc5cc([C@H](F)P(=O)(O)O)ccc5s4)C(=O)N32)C12CC2` (single isomer, unassigned) [Compound 936], the IC50 in assay [1] (setting [3]) is at most 0.3 µM; in assay [2] (setting [4]) it was 1000 to 10000 nM.
In the case of `N#CC1CN(C(=O)[C@@H]2C[C@@H](O)[C@H]3C/C=C\C[C@H](NC(=O)c4cc5cc(C(F)(F)P(=O)(O)O)ccc5s4)C(=O)N32)CC1c1ccccc1` (relative stereo) [Compound 758, ((2-(((1R,3S,6S,10aR,Z)-3-((rel-trans)-3-cyano-4-phenylpyrrolidine-1-carbonyl)-1-hydroxy-5-oxo-1,2,3,5,6,7,10,10a-octahydropyrrolo[1,2-a]azocin-6-yl)carbamoyl)benzo [b]thiophen-5-yl)difluoromethyl) phosphonic acid], the IC50 in assay [1] (setting [7]) was 0.3 to 3 µM; in assay [2] (setting [4]) it was 1000 to 10000 nM.
As to `Cn1ccnc1C1CN(C(=O)[C@@H]2CC[C@@H]3CCC[C@H](NC(=O)c4cc5cc(C(F)(F)P(=O)(O)O)ccc5s4)C(=O)N32)C1` [Compound 799, (difluoro(2-(((3S,6S,9aS)-3-(3-(1-methyl-1H-imidazol-2-yl)azetidine-1-carbonyl)-5-oxooctahydro-1H-pyrrolo[1,2-a]azepin-6-yl)carbamoyl)benzo [b]thiophen-5-yl)methyl) phosphonic acid], the IC50 in assay [1] (setting [3]) is 0.3 to 3 µM; in assay [2] (setting [4]) it was below 100 nM.
Take `O=C(N[C@H]1CCC[C@H]2CC[C@@H](C(=O)N3CC(c4cccnc4)C3)N2C1=O)c1cc2cc([C@@H](F)P(=O)(O)O)ccc2s1` [Compound 873, ((S)-fluoro(2-(((3S,6S,9aS)-5-oxo-3-(3-(802yridine-3-yl)azetidine-1-carbonyl)octahydro-1H-pyrrolo[1,2-a]azepin-6-yl)carbamoyl)benzo [b]thiophen-5-yl)methyl) phosphonic acid]: the IC50 is 3 to 30 µM in assay [1] (setting [7]) and below 100 nM in assay [2] (setting [4]).

A word on the IC50: it is the concentration that gives 50% inhibition.
